# Patent publication US11596633B2, “SHP2 inhibitor compositions and methods for treating cancer” (Revolution Medicines, Inc., priority 2017, dated 2023)
# Columns and labels:
# H358 KRas G12C xenograft = assay type: in vivo; conditions: daily PO, Compound C 10 mg/kg, Trametinib 1 mg/kg, Cobimetinib 2.5 mg/kg, Ulixertinib 100 mg/kg
# Method: The positive control, paclitaxel (30 mg/kg iv) in 5% ethanol, 5% cremophor EL, in 5% dextrose in deionized water was administered once every five days. Trametinib (1 mg/kg PO in 0.5% Methylcellulose+0.5% Tween 80) was administered by oral gavage daily. The study endpoint was defined as a mean tumor volume of 2000 mm^3 in the control group or 22 days, whichever came first. Mean tumor volume data are reported for all animals that remained on study.
# (§1) The effects on tumor cell growth in vivo of another SHP2 inhibitor (Compound C) as a monotherapy or as a combination therapy with various Ras pathway inhibitors were evaluated in the NSCLC H358 KRas^G12C and MIA-Pa-Ca-2 xenograft models as described above in Example 1, except that the test article and vehicle formulation was (2% HPMC E-50, 0.5% Tween 80 in 50 mM Sodium Citrate Buffer, pH 4.0)+/− the inhibitor compound(s). […] Test compounds or vehicle control were administered by oral gavage daily. The study endpoint was defined as a mean tumor volume of 2000 mm^3 in the control group or 22 days post-dosing, whichever came first. Mean tumor volume data are reported for all animals that remained on study.
# [1] = system: RAS-GTP in NCI-H1838 cells; assay: RAS-GTP pulldown (Raf-RBD); assay type: cell-based; conditions: NCI-H1838 (NF1 LOF), MEK inhibition by trametinib
# Method: (§2) To determine the effects of small molecules on levels of activated RAS-GTPase, cell lines of interest were cultured under standard 2D culture conditions. Cells were seeded and following overnight incubation incubated at 37° C. with vehicle (DMSO) or test article(s). After an appropriate incubation period, cells were washed and cell lysis buffer added to prepare a cell lysate. The levels of Ras-GTP in the lysates were determined using affinity purification of a Raf-RBD (Ras binding domain of Raf)/GTP-Ras complex. In one approach, the Pierce Active Ras Pulldown and Detection Kit was used. Briefly, clarified lysates (500 μg total protein, quantified by BCA) were mixed with glutathione resin, which had been preincubated with GST-Raf-RBD. The mixture was vortexed and incubated at 4° C. for 1 hour with gentle rocking. The resin was washed three times with lysis buffer and bound Ras-GTP eluted by addition of 2× reducing sample buffer. Eluted proteins were separated by SDS-PAGE using a 4-15% Tris-glycine gel (BioRad). Proteins were transferred to a nitrocellulose membrane for western blot using an anti-Ras antibody (Thermofisher, 1:200) and a Licor IRDye-800 anti-mouse secondary antibody (1:20,000). The Licor Odyssey CLx was used for visualization.
# as §2, with “resin” for “resin,”
# NCI-H358 xenograft = assay: NCI-H358 xenograft, alone and with trametinib (Example 7); conditions: trametinib 1 mg/kg
# Method: The effects of a SHP2 inhibitor on tumor cell growth in vivo were evaluated in the NSCLC H358 xenograft model using female athymic nude mice (6-8 weeks old). Mice were implanted with H358 tumor cells in 50% Matrigel (1×10^7 cells/animal) subcutaneously in the flank. Once tumors reached an average size of 200 mm^3 mice were randomized to treatment groups and administration of test article or vehicle (50 mM acetate buffer, pH 4.6 containing 10% captisol, unless otherwise indicated) initiated. […] Body weight and tumor volume (using calipers) was measured every other day until study endpoints.
# [2] = system: phosphorylated RTKs in MDA-MB-231 cells; assay: Phospho-RTK array; assay type: cell-based; conditions: MDA-MB-231 (KRAS G13D), 24 hours; selumetinib 5 μM, Compound A 1 and 5 μM
# Method: To determine the effects of test article(s) on levels of phosphorylated RTKs, MDA-MB231 cells were seeded in 6-well plates and incubated overnight in full growth medium. Cells were treated for 24 hours with selumetinib (5 μM) or Compound A (1 and 5 μM) or left untreated (DMSO control). Lysates were generated using the lysis buffer provided with the kit (Phospho-RTK Array; R&D systems) with inclusion of a protease inhibitor cocktail. To control for protein concentration, total protein levels were quantified using BCA reagent kit. The levels of phospho-RTK were determined according to the manufacturer's instructions.
# p-ERK1/2 in H1792 cells = assay: p-ERK AlphaLisa SureFire; assay type: cell-based; conditions: H1792 cells (KRAS G12C)
# Method: (§3) Cells were plated at ˜20×10^3 cells per well and following overnight incubation were washed with serum-free media. Cells were then incubated for one hour with increasing concentrations of the test article in serum-free media containing 0.2% BSA prior to termination of the assay and measurement of pERK levels in cellular lysates by AlphaLisa SureFire Ultra kit conducted according to the manufacturer's instructions.
# p-ERK1/2 in H358 cells = assay: p-ERK AlphaLisa SureFire; assay type: cell-based, human; conditions: H358 cells (KRAS G12C)
# Method: as §3
# p-ERK1/2 in Calu-1 cells = assay: p-ERK AlphaLisa SureFire; assay type: cell-based, human; conditions: Calu-1 cells (KRAS G12C)
# Method: as §3
# MIA-Pa-Ca-2 xenograft = assay: MIA-Pa-Ca-2 xenograft, Compound C with Abemaciclib (Example 8); assay type: in vivo, mice; conditions: Compound C 30 mg/kg PO, Abemaciclib 50 mg/kg
# Excerpt: Similar methods were used to evaluate efficacy of test articles in the pancreatic MiaPaca-2 KRas^G12C xenograft model. Balb/c nude mice (6-8 weeks old) were implanted with […] MiaPaca-2 tumor cells in 50% Matrigel subcutaneously in the flank. […] Administration of test articles and study design are as described above for H358 xenograft model.
# as §1
compound,measurement,setting,value
O=C(c1ccc(F)c(F)c1Nc1ccc(I)cc1F)N1CC(O)([C@@H]2CCCCN2)C1 [Cobimetinib],tumor growth as a single agent compared to vehicle control,H358 KRas G12C xenograft,significant tumor growth inhibition
"CC(=O)Nc1cccc(-n2c(=O)n(C3CC3)c(=O)c3c(Nc4ccc(I)cc4F)n(C)c(=O)c(C)c32)c1 [Trametinib, reference compound]",tumor growth as a single agent compared to vehicle control,H358 KRas G12C xenograft,significant tumor growth inhibition
same,feedback-driven RAS-GTP accumulation,[1],caused feedback-driven RAS-GTP accumulation
same,tumor growth as compared to the vehicle control,"NCI-H358 xenograft; single agent, Compound B 10 and 30 mg/kg",significant tumor growth inhibition
same,"tumor growth inhibition, TGI",NCI-H358 xenograft,79%
CC(C)Nc1cc(-c2c[nH]c(C(=O)N[C@H](CO)c3cccc(Cl)c3)c2)c(Cl)cn1 [Ulixertinib],tumor growth as a single agent compared to vehicle control,H358 KRas G12C xenograft,significant tumor growth inhibition
"Cn1cnc2c(F)c(Nc3ccc(Br)cc3Cl)c(C(=O)NOCCO)cc21 [selumetinib, Selumetinib, reference compound]",feedback-driven p-RTK hyperactivation,[2],caused feedback-driven p-RTK hyperactivation
"C=CC(=O)N1CC(N2CCN(C(=O)CNc3cc(C4(C)CC4)c(Cl)cc3O)CC2)C1 [ARS-853, reference compound]",inhibition of p-ERK1/2 levels,p-ERK1/2 in H1792 cells,sensitive
same,inhibition of p-ERK1/2 levels,p-ERK1/2 in H358 cells,sensitive
same,inhibition of p-ERK1/2 levels,p-ERK1/2 in Calu-1 cells,sensitive
CCN1CCN(Cc2ccc(Nc3ncc(F)c(-c4cc(F)c5nc(C)n(C(C)C)c5c4)n3)nc2)CC1 [Abemaciclib],tumor growth as a single agent compared to vehicle control,MIA-Pa-Ca-2 xenograft,significant tumor growth inhibition
